Measured values taken from paper PMC5556071, “ATR inhibition facilitates targeting of leukemia dependence on convergent nucleotide biosynthetic pathways” (Nature Communications, 2017).
Values joined by “and” are separate entries in the source; they are usually repeats but may differ in a detail not shown here. Equal values may be shown once.

System: CEM cells
Assay: Non-targeted LC-MS metabolite profiling: percent [13C6]glucose labeling and relative metabolite levels
Type: cell-based, human
Text: To further investigate the functions of dCK and ATR at the G1/S transition in CEM cells, a non-targeted liquid chromatography mass spectrometry (LC-MS) assay was used to determine the utilization of labeled [^13C6]glucose and [^13C9,^15N3]deoxycytidine, the main substrates for de novo and salvage nucleotide biosynthesis, respectively. Of the 166 metabolites identified in CEM cells treated with VE-822 and/or dCKi, 105 metabolites found in all four treatment groups contained glucose-derived ^13C atoms. […] These metabolites included intermediates such as rUTP, rCTP and rCDP in the de novo dCTP biosynthesis (Fig. 1d). […] However, several deoxyribonucleotides, including dCTP, were below the limit of detection of the non-targeted LC-MS approach, raising the concern that the sensitivity of this assay is not sufficient to measure the contribution of the salvage pathway or the ratio of de novo and salvage biosynthesis to these pools. To address this problem, a newly developed targeted MS assay was developed (Fig. 1e and Supplementary Fig. 3). In this assay, samples containing either extracted dNTPs or hydrolyzed DNA from labeled cells are separated by LC for detection by a triple quadrupole mass spectrometer using multiple reaction monitoring (LC-MS/MS-MRM). The first (Q1) and third (Q3) quadrupoles function as mass filters, while the second (Q2) quadrupole serves as a collision chamber (Fig. 1e). For instance, to profile the biosynthetic composition of deoxycytidine (dC) derived from hydrolyzed DNA or dCTP, an intact, protonated dC ion is selected in Q1, followed by fragmentation of the glycosidic bond, which releases protonated cytosine in Q2, that is filtered in Q3 and detected to generate an ion chromatogram. The peak areas for the ion chromatograms of salvage [^13C9,^15N3]dC (red trace), de novo [^13C5]dC (black trace, from [^13C6]glucose) and unlabeled dC (gray trace) (Fig. 1e) are used to determine the relative contributions of the de novo and salvage routes both to dCTP pools and to DNA-incorporated dCTP.
Cells were transferred into RPMI-1640 without glucose and supplemented with 10% dialyzed FBS (Gibco) containing the following labeled substrates: precursors for de novo [U-^13C6]glucose (Sigma-Aldrich, 389374) at 11 mM; precursors for purine salvage [U-^13C10,^15N5]dA (Cambridge Isotopes, CIL 3896), [^15N5]dA (Cambridge Isotopes, NLM-3895) and [^15N5]dG (Cambridge Isotopes, NLM-3899) at 5 µM or as indicated; and precursors for pyrimidine salvage: [U-^13C9,^15N3]dC (Silantes, 124603602) and [U-^13C10,^15N2]dT (Cambridge Isotopes, CNLM-3902) at 5 µM and [^15N2]orotate (Cambridge Isotopes, NLM-1048) at indicated concentrations. The cells were incubated for 12 h or as indicated before sample collection and processing. […]
Non-targeted LC-MS metabolic assays. 1 x 10^6 cells were washed with ice-cold 150 mM ammonium acetate twice before adding 1 mL of ice-cold 80% methanol with 10 nM norvaline as an internal standard. After vigorous vortexing, samples were centrifuged at maximum speed, the aqueous layer was transferred to a glass vial and the metabolites were dried under vacuum. Metabolites were resuspended in 50 μL 70% acetonitrile (ACN) and 5 μL of this solution used for the mass spectrometer-based analysis. The analysis was performed on a Q Exactive (Thermo Scientific) in polarity-switching mode with positive voltage 4.0 kV and negative voltage 4.0 kV. The mass spectrometer was coupled to an UltiMate 3000RSLC (Thermo Scientific) UHPLC system. Mobile phase A was 5 mM ammonium acetate (NH4AcO), pH 9.9, B was acetonitrile and the separation achieved on a Luna […] NH2 100 A column (150 × 2.0 mm, Phenomenex). The flow was 200 μL/min, and the gradient ran from 15% A to 95% A in 18 min, followed by an isocratic step for 9 min and re-equilibration for 7 min. Metabolites were detected and quantified as area under the curve based on retention time and accurate mass (≤ 3 p.p.m.) using the TraceFinder 3.1 (Thermo Scientific). Relative amounts of […]

[1] = metabolite Gln (KEGG C00064), CEM cells, 12 h following release from G1 arrest, replicates #1-#6, listed as V
[2] = metabolite Glu (KEGG C00025), CEM cells, 12 h following release from G1 arrest, replicates #1-#6, listed as V
[3] = metabolite GlucA (KEGG C00191), CEM cells, 12 h following release from G1 arrest, replicates #1-#6, listed as V
[4] = metabolite Gly (KEGG C00037), CEM cells, 12 h following release from G1 arrest, replicates #1-#6, listed as V
[5] = metabolite Glycerol (KEGG C00116), CEM cells, 12 h following release from G1 arrest, replicates #1-#6, listed as V
[6] = metabolite Glycerol-2-P (KEGG C02979), CEM cells, 12 h following release from G1 arrest, replicates #1-#6, listed as V
[7] = metabolite Glycerol-3-P (KEGG C00093), CEM cells, 12 h following release from G1 arrest, replicates #1-#6, listed as V
[8] = metabolite Homocysteine (KEGG C00155), CEM cells, 12 h following release from G1 arrest, replicates #1-#6, listed as V
[9] = metabolite Hypoxanthine (KEGG C00262), CEM cells, 12 h following release from G1 arrest, replicates #1-#6, listed as V
[10] = metabolite IMP (KEGG C00130), CEM cells, 12 h following release from G1 arrest, replicates #1-#6, listed as V
[11] = metabolite Inosine (KEGG C00294), CEM cells, 12 h following release from G1 arrest, replicates #1-#6, listed as V
[12] = metabolite a-KG (C00026), CEM cells, 12 h following release from G1 arrest, replicates #1-#6, listed as V

## CNCc1ccc(-c2cc(-c3nc(-c4ccc(S(=O)(=O)C(C)C)cc4)cnc3N)on2)cc1 [VE-822]
[1]
  Glucose labeling of Gln: 0.12% (2×) and 0.11% and 0.10% and 0.14% and 0.13%
  Relative level of Gln: 1.4 and 1.5 (2×) and 1.0 (2×) and 1.1
[2]
  Glucose labeling of Glu: 29.64% and 29.75% and 29.30% and 29.37% and 29.63% and 30.02%
  Relative level of Glu: 1.1 and 1.0 (2×) and 0.8 and 0.6 (2×)
[3]
  Glucose labeling of GlucA: 1.00% and 0.54% and 0.16% and 1.19% and 0.18% (2×)
  Relative level of GlucA: 1.5 and 1.3 (2×) and 0.9 and 0.664 and 0.6
[4]
  Glucose labeling of Gly: 3.91% and 4.81% and 4.97% and 3.57% and 3.82% and 3.53%
  Relative level of Gly: 1.8 and 1.3 (2×) and 0.853 and 0.8 and 0.846
[5]
  Glucose labeling of Glycerol: 0.0369% (3×) and 0.02% and 0.03% and 0.0184%
  Relative level of Glycerol: 0.6 and 1.0 and 0.643 and 1.2 (2×) and 2.5
[6]
  Glucose labeling of Glycerol-2-P: 20.62% and 19.08% and 14.73% and 9.01% and 11.61% and 10.03%
  Relative level of Glycerol-2-P: 2.7 and 1.2 and 1.6 and 1.8 and 0.334 and 0.262
[7]
  Glucose labeling of Glycerol-3-P: 13.71% and 13.99% and 13.43% and 15.94% and 16.61% and 16.91%
  Relative level of Glycerol-3-P: 1.3 and 1.4 (2×) and 1.0 (2×) and 0.9
Metabolite HS2O3 (KEGG C00320), CEM cells, 12 h following release from G1 arrest, replicates #1-#6
  Glucose labeling of HS2O3: 100.00%
Metabolite HS2O3 (KEGG C00320), CEM cells, 12 h following release from G1 arrest, replicates #1-#6, listed as V
  Relative level of HS2O3: 1.2 and 0.9 and 1.0 (3×) and 1.1
Metabolite His (KEGG C00135), CEM cells, 12 h following release from G1 arrest, replicates #1-#6
  Glucose labeling of His: 0.00%
Metabolite His (KEGG C00135), CEM cells, 12 h following release from G1 arrest, replicates #1-#6, listed as V
  Relative level of His: 1.3 and 1.5 and 1.4 and 0.7 and 0.8 (2×)
[8]
  Glucose labeling of Homocysteine: 0.000288% and 0.000653% and 0.00102% and 0.000955% and 0.0737% (2×)
  Relative level of Homocysteine: 2.9 and 3.8 and 5.4 and 40.5 and 0.9 and 1.3
[9]
  Glucose labeling of Hypoxanthine: 0.12% (2×) and 0.05% and 0.0153% and 0.00222% and 0.0636%
  Relative level of Hypoxanthine: 2.4 and 3.2 and 4.8 and 46.0 and 2.3 and 1.3
[10]
  Glucose labeling of IMP: 85.88% and 80.98% and 88.08% and 72.70% and 96.97% and 95.32%
  Relative level of IMP: 2.4 and 1.3 (2×) and 1.7 and 0.4 (2×)
[11]
  Glucose labeling of Inosine: 46.28% and 0.55% and 45.89% and 28.71% and 31.06% and 6.95%
  Relative level of Inosine: 1.9 and 1.5 and 4.0 and 5.0 and 1.2 and 4.1
Metabolite Inositol (KEGG C00137), CEM cells, 12 h following release from G1 arrest, replicates #1-#6
  Glucose labeling of Inositol: 0.00%
Metabolite Inositol (KEGG C00137), CEM cells, 12 h following release from G1 arrest, replicates #1-#6, listed as V
  Relative level of Inositol: 1.2 and 1.3 (2×) and 1.0 (3×)
Metabolite Isocaproate (X00005), CEM cells, 12 h following release from G1 arrest, replicates #1-#6
  Glucose labeling of Isocaproate: 0.00%
Metabolite Isocaproate (X00005), CEM cells, 12 h following release from G1 arrest, replicates #1-#6, listed as V
  Relative level of Isocaproate: 0.949 and 1.1 and 1.2 and 0.9 and 1.0 and 0.7
[12]
  Glucose labeling, a-KG: 12.64% and 3.49% and 7.53% and 10.05% and 2.98% and 1.28%
  Relative level, a-KG: 1.7 and 0.7 and 1.0 and 0.9 and 0.3 and 0.255
non-targeted LC-MS analysis
  decrease of glucose labeling of orotidine monophosphate (OMP): 30%
